Type in all cases: cell-based
Assay [1] concerns mouse embryonic skin fibroblasts (MSFs). Description: Nuclear strain transfer from membrane to nucleus after cyclic stretch. To be noted: after 30 min of 20% cyclic strain; relaxed vs stretched images; cytochalasin D 2 μM vs NT cells. As for the experimental part:
Transgenic mice harboring a fluorescence tag at the H2b histone—B6.Cg-Tg (HIST1H2BB/EGFP) 1 Pa/J, Stock No: 006069—were obtained from Jackson Laboratory (Bar Harbor, Me.). All animal procedures were performed following Institutional Animal Care & Use Committee approval. Skin from embryonic mice was harvested 18.5 days post-conception. Skin was minced, washed with Hank's Balanced Salt Solution (HBSS), and incubated in 35 mm dishes in shallow medium (˜0.5 mL) to avoid floating of the tissue for 4 days, during which fibroblasts extruded from the tissue. After 4 days, remaining tissue was removed (picked out with a pipette), and extruded cells in the dish were detached using TrypLE (Gibco, Gaithersburg, Md.) and expanded in culture for another 2 days before being seeded into stretch chambers for experiments. […] To test the use of chromatin dyes, cells were stained with Hoechst (NucBlue Live ReadyProbes; Life Technologies) 30 min before experiments. […]
To analyze the amount of strain transferred from the membrane to the nucleus after cyclic stretch routines, image stacks of nuclei were acquired under relaxed or stretched conditions, and bulk nuclear strain was calculated from the change in nuclear area using the same MATLAB script as above. Note that nuclear strain transfer could not be accurately analyzed before stretch routines because of the fast response in area decline.

Assay [2] shares this test system. Description: Perinuclear F-actin and γH2a.x staining after cyclic stretch routines. As to conditions: cytochalasin D 2 μM. As for the experimental part: (§1) Transgenic mice harboring a fluorescence tag at the H2b histone—B6.Cg-Tg (HIST1H2BB/EGFP) 1 Pa/J, Stock No: 006069—were obtained from Jackson Laboratory (Bar Harbor, Me.). All animal procedures were performed following Institutional Animal Care & Use Committee approval. Skin from embryonic mice was harvested 18.5 days post-conception. Skin was minced, washed with Hank's Balanced Salt Solution (HBSS), and incubated in 35 mm dishes in shallow medium (˜0.5 mL) to avoid floating of the tissue for 4 days, during which fibroblasts extruded from the tissue. After 4 days, remaining tissue was removed (picked out with a pipette), and extruded cells in the dish were detached using TrypLE (Gibco, Gaithersburg, Md.) and expanded in culture for another 2 days before being seeded into stretch chambers for experiments. The inner well of assembled stretch chambers was ozone activated for 30 s via corona arc discharge (BD-20; Electro-Technic Products) and coated with 50 μg/mL bovine plasma fibronectin (F1141; Sigma-Aldrich) in a total volume of 250 μL overnight at 37° C. Mouse embryonic skin fibroblasts (MSFs) were seeded into stretch chambers at a density of 80,000 cells/cm′ 1 day before experiments. MSFs were extruded and cultured in DMEM (ATCC, Manassas, Va.) containing 10% fetal bovine serum (Gibco), 1% penicillin-streptomycin (Gibco), and 25 mM HEPES (Gibco) at 37° C. and 5% CO2. To inhibit calcium signaling, MSFs were incubated with 50 μM BAPTA (A4926; Sigma-Aldrich) or 10 μM KN-62 (12142; Sigma-Aldrich) 1 h before cyclic strain experiments. To disrupt actin polymerization, MSFs were incubated with 2 μM cytochalasin D (C8273; Sigma-Aldrich) 30 min before experiments. Vehicle controls were incubated with 0.001% DMSO (276855; Sigma-Aldrich) 1 h before experiments. To test the use of chromatin dyes, cells were stained with Hoechst (NucBlue Live ReadyProbes; Life Technologies) 30 min before experiments. Stretch experiments were performed at 25° C. (room temperature) under humidified conditions.
MSFs were fixed in 4% ice-cold paraformaldehyde (PFA) for 10 min, permeabilized with 1% Triton-X100 in phosphate-buffered saline for 15, min and blocked with 10% NGS, 1% bovine serum albumin in 0.1% PBT (0.1% Tween-20 in phosphate-buffered saline) for 60 min. Primary incubation of Phospho-Histone H2A.X Ser139 (9718S; Cell Signaling Technology, Danvers, Mass.) was performed at 4° C. overnight in 0.1% PBT containing 1% bovine serum albumin at 1:400. Secondary incubation of goat anti-rabbit IgG-AF546 (Life Technologies) was performed in primary incubation buffer for 45 min at 22° C. at a dilution of 1:500. F-actin was counterstained with phalloidin-CF405 (Biotium, Fremont, Calif.) for 30 min at a dilution of 1:30. Staining was performed in containment wells. After staining, membranes were cut out of the containment well using a circular punch and mounted cell-side up onto #1.0 glass slides with ProLong Diamond Antifade Mountant (Life Technologies). Image stacks (5 μm, 1 μm step) of multiple nuclei in a 318×318 μm area were acquired on a Nikon MR confocal microscope using a 40× oil immersion objective (0.31 μm/pixel). A custom MATLAB code was used to track nuclear outlines via H2b-eGFP and to quantify perinuclear F-actin intensities and γH2a.x foci in projected image stacks. Only the projected F-actin within the nuclear outline (apical perinuclear F-actin) was counted in this analysis. To account for variations in staining and imaging (the same imaging settings were used), fluorescence channels were histogram normalized. Perinuclear F-actin intensities were calculated as the sum of normalized phalloidin intensities within a nuclear border. DNA damage foci were determined by detecting 2D peaks in the normalized γH2a.x channel using the MATLAB script FastPeakFind (v. 1.7).

Assay [3] has the same test system. Description: Live imaging of nuclear area and chromatin condensation (H2b-eGFP) during cyclic stretch routines. To be noted: BAPTA 50 μM, KN-62 10 μM, cytochalasin D 2 μM. On the procedure: as §1
The stretch device was mounted on an inverted epi-fluorescence microscope (Ti-Eclipse; Nikon) with a 60× water immersion objective (0.26 μm/pixel) and an EMCCD camera (iXonEM+; Andor Technology). The surrounding of the microscope was humidified to prevent the water on the objective from evaporating during the 1 h experiment. Oil immersion is also possible, but water immersion provided better image quality with the silicone membranes used.
Using MATLAB, a sinusoidal control signal (1 Hz) was sent to the Arduino controller, resulting in a cyclic stretch routine of the membrane (FIG. 1C), with peak strains set to 5% (−0.1 V), 10% (−0.9 V), and 20% (−2.25 V) as determined by the calibration curve. Cells were cyclically stretched for 30 min, followed by 30 min of rest, during which 2 μm z-stacks (0.5 μm steps) of nuclei were acquired. During the rest period, cells experienced no stretch but a constant magnetic field using the offset Arduino input voltage (0.8 V) that keeps the piston suspended at 0% stretch. For acquisition, the cyclic stretch routine was paused for 1 min to allow for a steady imaging plane and fine readjustments in z-position due to water evaporation. Unstretched control cells (0%) were seeded into stretch chambers but kept stationary on the microscope without any magnetic field applied. Unstretched magnetic control cells (MAG) were placed stationary inside the coil without the piston, and a magnetic field corresponding to a 20% sinusoidal stretch routine was applied.
A custom MATLAB code was used to track nuclear outlines via H2b-eGFP and to generate H2b intensity histograms during an image series, from which changes in nuclear area, H2b skewness, and H2b kurtosis were calculated.

The mark [4] stands for this setting: after 30 min 5% cyclic stretch, vs NT or VH control cells, BAPTA 50 μM, KN-62 10 μM.
Setting [5] is: after 30 min 5% cyclic stretch, vs NT or VH control cells, BAPTA 50 μM, KN-62 10 μM, listed as CD.
The mark [6] stands for this setting: after 30 min 20% cyclic stretch, vs NT or VH control cells, BAPTA 50 μM, KN-62 10 μM.
[7] abbreviates: after 30 min 20% cyclic stretch, vs NT or VH control cells, BAPTA 50 μM, KN-62 10 μM, listed as CD.
The mark [8] stands for this setting: static magnetic-field-only routine (MAG), no stretch.

“Also recorded” adds a separate entry of the source.

In the case of `C=C1[C@@H](C)[C@H]2[C@H](Cc3ccccc3)NC(=O)[C@]23[C@H](OC(C)=O)/C=C/[C@@](C)(O)C(=O)[C@@H](C)C/C=C/[C@H]3[C@@H]1O` [cyto D, cytochalasin D], in assay [1], the “strain transferred from membrane to nuclei (nuclear strain)” value is given as “higher nuclear strains; also recorded: increase”. For the same molecule, the “number of γH2a.x foci per nucleus (DNA damage, double-strand breaks)” value is given as “distinctly increased” in assay [2] (setting [4]); “increased number of foci” in assay [2] (setting [5]); “distinctly increased” in assay [2] (setting [6]); “increased number of foci” in assay [2] (setting [7]); “had no effect” in assay [2] (static magnetic-field-only controls (MAG), BAPTA 50 μM, KN-62 10 μM). Moreover, the “perinuclear F-actin intensities” value in assay [2] (setting [4]) is “increased”; in assay [2] (setting [5]), “altered F-actin intensities”; in assay [2] (setting [6]), “abrogated”; in assay [2] (setting [7]), “altered F-actin intensities”; in assay [2] (after magnetic-field-only routine (MAG)) it was “showed no effect”. The “change in nuclear area” value in assay [3] (30 min 5% cyclic strain, 1 Hz, vs NT/VH cells (area increases)) is listed as “abrogated the increase in nuclear area”; in assay [3] (30 min 5% cyclic strain, 1 Hz, vs NT/VH cells (area increases), listed as CD), “inhibited changes in nuclear area”; in assay [3] (30 min 20% cyclic strain, 1 Hz, vs NT/VH cells (area decreases)) it was “inhibited nuclear shrinkage”; in assay [3] (30 min 20% cyclic strain, 1 Hz, vs NT/VH cells (area decreases), listed as CD), “inhibited changes in nuclear area”; in assay [3] (setting [8]), “showed no effect”. The “chromatin condensation (H2b histogram kurtosis and skewness)” value is “distinctly increased chromatin condensation” in assay [3] (30 min 5% cyclic strain, 1 Hz, vs NT/VH cells (condensation decreases)); “inhibited changes in nuclear area and chromatin condensation” in assay [3] (30 min 5% cyclic strain, 1 Hz, vs NT/VH cells (condensation decreases), listed as CD); “inhibited nuclear shrinkage and chromatin condensation” in assay [3] (30 min 20% cyclic strain, 1 Hz, vs NT/VH cells (condensation increases)); “inhibited changes in nuclear area and chromatin condensation” in assay [3] (30 min 20% cyclic strain, 1 Hz, vs NT/VH cells (condensation increases), listed as CD); “showed no effect” in assay [3] (setting [8]).

The values are drawn from patent publication US11360010B1, “Methods and device for controlled cell stretch and imaging” (The Regents of the University of Colorado, a body, priority 2019, dated 2022).
